Row | SMILES | melting point
1 | CCOC(=O)CCc1cccc(-c2c(CC(=O)Nc3ccc(F)cc3C(F)(F)F)c(=O)oc3cc(Cl)ccc23)c1 [Example 12, ethyl 3-[3-[7-chloro-3-[2-[[4-fluoro-2-(trifluoromethyl)phenyl]amino]-2-oxoethyl]-2-oxo-2H-chromen-4-yl]phenyl]propionate] | 164 to 165 °C
2 | CCOC(=O)CCc1cccc(-c2c(CC(=O)Nc3ccc(F)cc3C(F)(F)F)c(=O)oc3cc(Cl)c(F)cc23)c1 [Example 11, ethyl 3-[3-[7-chloro-6-fluoro-3-[2-[[4-fluoro-2-(trifluoromethyl)phenyl]amino]-2-oxoethyl]-2-oxo-2H-chromen-4-yl]phenyl]propionate] | 142 to 144 °C
3 | O=C(O)CCc1cccc(-c2c(CC(=O)Nc3ccc(F)cc3C(F)(F)F)c(=O)oc3cc(Cl)c(F)cc23)c1 [Example 22, 3-[3-[7-chloro-6-fluoro-3-[2-[[4-fluoro-2-(trifluoromethyl)phenyl]amino]-2-oxoethyl]-2-oxo-2H-chromen-4-yl]phenyl]propionic acid] | 198 to 200 °C
4 | Cc1cc2c(-c3cccc(C(=O)O)c3)c(CC(=O)Nc3ccc(F)cc3C(F)(F)F)c(=O)oc2cc1Cl [Example 2] | 278 to 280 °C

Continued, values first:

Row | melting point | SMILES
5 | 295 °C (dec.) | Cc1cc2c(-c3cccc(Cc4noc(=O)[nH]4)c3)c(CC(=O)Nc3ccccc3C(F)(F)F)c(=O)oc2cc1Cl [Example 101]
6 | 244 to 246 °C | Cc1cc2c(-c3cccc(CCc4nnn[nH]4)c3)c(CC(=O)Nc3ccc(F)cc3C(F)(F)F)c(=O)oc2cc1Cl [Example 98]
7 | 215 to 217 °C | Cc1cc2c(-c3cccc(C(=O)NC(C)C)c3)c(CC(=O)Nc3ccc(Cl)cc3C(F)(F)F)c(=O)oc2cc1Cl [Example 121]
8 | 106 to 108 °C | CCOC(=O)CSCc1cccc(-c2c(CC(=O)Nc3ccc(F)cc3C(F)(F)F)c(=O)oc3cc(Cl)c(C)cc23)c1 [Example 63, Ethyl ({3-[7-chloro-3-(2-{[4-fluoro-2-(trifluoromethyl)phenyl]amino}-2-oxoethyl)-6-methyl-2-oxo-2H-chromen-4-yl]benzyl}thio)acetate]
9 | 285 to 287 °C | Cc1cc2c(-c3cccc(-c4noc(=O)[nH]4)c3)c(CC(=O)Nc3ccc(F)cc3C(F)(F)F)c(=O)oc2cc1Cl [Example 99, 2-{7-chloro-6-methyl-2-oxo-4-[3-(5-oxo-4,5-dihydro-1,2,4-oxadiazol-3-yl)phenyl]-2H-chromen-3-yl}-N-[4-fluoro-2-(trifluoromethyl)phenyl]acetamide]
